Source: article PMC8753592, “Long-acting capsid inhibitor protects macaques from repeat SHIV challenges” (Nature, 2021)
Values joined by “and” are separate entries in the source; they are usually repeats but may differ in a detail not shown here. Equal values may be shown once.

Assays:
SHIV-SF162P3 = experiment: Repeated escalating-dose rectal SHIV challenge study (plasma viraemia by gag RT-qPCR); type: in vivo, rhesus macaques of Indian origin
Procedure: For the challenge study, 24 outbred rhesus macaques of Indian origin were assigned to the three study groups with even sex and weight distributions. All animals were housed at Alpha Genesis (Yemassee, SC), and all procedures were conducted in compliance with all relevant local, state and federal regulations and were approved by the Alpha Genesis IACUC. […] The injection sites were monitored daily by veterinary staff for 3 days. Beginning in week 1, animals in all three groups were challenged by the intrarectal route with 1 ml of RPMI containing the specified dilution of a 3.62 × 10^3 TCID50 SHIV-SF162P3 stock. At each respective time point, the challenges were performed on the same day, using the same virus stock and inoculation method across the three groups. Whole blood was collected and processed into plasma and PBMCs as necessary to assess routine haematology, clinical chemistry, viral load and serology as well as for bioanalysis of drug levels. The animals were considered to be protected if they remained SHIV negative by plasma PCR assay and seronegative by enzyme immunoassay throughout the 15-week challenge phase and the 9-week follow-up.
RNA was extracted from rhesus macaque plasma using a QIAcube high-throughput instrument and an IndiSpin QIAcube HT Pathogen kit (Qiagen). RNA standards using the SIV gag sequence were generated by AmpliCap-Max T7 High-Yield Message Maker kit (Cell Script) and were purified using an RNA Clean and Concentrator kit (Zymo Research). Log dilutions of the RNA were included with each RT–qPCR assay. Reverse transcription of standards and samples was performed using a Superscript III VILO kit (Invitrogen). qPCR was performed using forward primer 5′-[…]-3′, reverse primer 5′-[…]-3′ and fluorescently labelled primer 5′-[…]-3′ on a Quantstudio 6 Flex system (Applied Biosystems). The assay LOD was 200 copies gag per ml.
Protection against acquired infection was analysed using Cox proportional hazard regression models based on the exact partial likelihood for discrete time expressed in weeks, which explicitly accounts for the time-varying viral challenge dose in the model. The hazard ratios with 95% confidence intervals for per-exposure relative reductions in acquisition risk were calculated for the GS-CA1-treated groups, and the results were compared with those for the vehicle-treated control group. Comparisons were considered statistically significant at a two-sided alpha level of 0.05 (P < 0.05). Statistical analyses were performed using GraphPad Prism version 8.1.2, SAS version 9.4 and R Studio software version 4.0.5.

[1] = system: SHIV envelope (Env) glycoprotein; experiment: Env (gp140) ELISA seroconversion in challenged animals; type: in vivo, rhesus macaques; settings: for First viremia to seroconversion interval / Seroconversion timepoint: individual infected animals
Procedure: Rhesus serum binding antibody titres against gp140 trimers were determined by ELISA. Ninety-six-well Maxisorp ELISA plates (Thermo Fisher Scientific) were coated overnight with 100 μl per well of 1 μg ml^−1 mosaic M gp140 protein in PBS and were then blocked for 2 h with blocker casein in PBS (Thermo Scientific). Macaque sera were added in threefold serial dilutions and were incubated for 1 h at room temperature. The plates were washed three times with PBS containing 0.05% Tween-20 and were then incubated for 1 h with a 1:1,000 dilution of a horseradish peroxidase (HRP)-conjugated goat anti-human secondary antibody (Jackson ImmunoResearch Laboratories). The plates were then washed three times with the above wash buffer and were developed using SureBlue tetramethylbenzidine (TMB) microwell peroxidase (KPL). Development was stopped by the addition of a stop solution (KPL), and the plates were then analysed at 450 nm with a Versamax ELISA microplate reader (Molecular Devices) using Softmax Pro 6.5.1 software. The ELISA endpoint titres were defined as the highest reciprocal serum dilution that yielded an OD450 nm absorbance of >0.2. Seroconversion occurred when the OD450 nm absorbance was greater than or equal to three times the value obtained at week 0 and the endpoint titre was greater than the assay LOD, which was 1:25.

[2] = ref Yant et al, Nat.Med, 2019;[4]; cited from earlier work

Structure (SMILES): CC(C)(C#Cc1ccc(-c2ccc(Cl)c3c(NS(=O)(=O)C4CC4)nn(CC(F)F)c23)c([C@H](Cc2cc(F)cc(F)c2)NC(=O)Cn2nc(C(F)F)c3c2C(F)(F)[C@@H]2C[C@H]32)n1)S(C)(=O)=O [GS-CA1]
- Plasma SHIV viral load (SHIV-SF162P3; GS-CA1 150mg/kg group, Week 22, individual animals, 150 mg/kg): 200 gag RNA copies per ml and 2557 gag RNA copies per ml and 493 gag RNA copies per ml
- Plasma SHIV viral load (SHIV-SF162P3; GS-CA1 150mg/kg group, Week 23, individual animals, 150 mg/kg): 200 gag RNA copies per ml and 1150 gag RNA copies per ml and 1806 gag RNA copies per ml and 218 gag RNA copies per ml
- Plasma SHIV viral load (SHIV-SF162P3; GS-CA1 150mg/kg group, Week 24, individual animals, 150 mg/kg): 200 gag RNA copies per ml and 724 gag RNA copies per ml and 1367 gag RNA copies per ml
- Plasma SHIV viral load (SHIV-SF162P3; GS-CA1 300mg/kg group, Week 1, individual animals): 200 gag RNA copies per ml
- Plasma SHIV viral load (SHIV-SF162P3; GS-CA1 300mg/kg group, Week 2, individual animals): 200 gag RNA copies per ml
- Plasma SHIV viral load (SHIV-SF162P3; GS-CA1 300mg/kg group, Week 3, individual animals): 200 gag RNA copies per ml
- Plasma SHIV viral load (SHIV-SF162P3; GS-CA1 300mg/kg group, Week 4, individual animals): 200 gag RNA copies per ml
- Plasma SHIV viral load (SHIV-SF162P3; GS-CA1 300mg/kg group, Week 5, individual animals): 200 gag RNA copies per ml
- Plasma SHIV viral load (SHIV-SF162P3; GS-CA1 300mg/kg group, Week 6, individual animals): 200 gag RNA copies per ml
- Plasma SHIV viral load (SHIV-SF162P3; GS-CA1 300mg/kg group, Week 7, individual animals): 200 gag RNA copies per ml
- Plasma SHIV viral load (SHIV-SF162P3; GS-CA1 300mg/kg group, Week 8, individual animals): 200 gag RNA copies per ml
- Plasma SHIV viral load (SHIV-SF162P3; GS-CA1 300mg/kg group, Week 9, individual animals): 200 gag RNA copies per ml
- Plasma SHIV viral load (SHIV-SF162P3; GS-CA1 300mg/kg group, Week 10, individual animals): 200 gag RNA copies per ml
- Plasma SHIV viral load (SHIV-SF162P3; GS-CA1 300mg/kg group, Week 11, individual animals): 200 gag RNA copies per ml
- Plasma SHIV viral load (SHIV-SF162P3; GS-CA1 300mg/kg group, Week 12, individual animals): 200 gag RNA copies per ml
- Plasma SHIV viral load (SHIV-SF162P3; GS-CA1 300mg/kg group, Week 13, individual animals): 200 gag RNA copies per ml
- Plasma SHIV viral load (SHIV-SF162P3; GS-CA1 300mg/kg group, Week 14, individual animals): 200 gag RNA copies per ml
- Plasma SHIV viral load (SHIV-SF162P3; GS-CA1 300mg/kg group, Week 15, individual animals): 200 gag RNA copies per ml
- Plasma SHIV viral load (SHIV-SF162P3; GS-CA1 300mg/kg group, Week 16, individual animals): 200 gag RNA copies per ml
- Plasma SHIV viral load (SHIV-SF162P3; GS-CA1 300mg/kg group, Week 17, individual animals, 300 mg/kg): 9063 gag RNA copies per ml and 13193 gag RNA copies per ml and 200 gag RNA copies per ml and 13143 gag RNA copies per ml
- Plasma SHIV viral load (SHIV-SF162P3; GS-CA1 300mg/kg group, Week 18, individual animals, 300 mg/kg): 200 gag RNA copies per ml and 6116 gag RNA copies per ml and 1633235 gag RNA copies per ml
- Plasma SHIV viral load (SHIV-SF162P3; GS-CA1 300mg/kg group, Week 19, individual animals, 300 mg/kg): 200 gag RNA copies per ml and 123639 gag RNA copies per ml
- Plasma SHIV viral load (SHIV-SF162P3; GS-CA1 300mg/kg group, Week 20, individual animals, 300 mg/kg): 200 gag RNA copies per ml and 17958 gag RNA copies per ml
- Plasma SHIV viral load (SHIV-SF162P3; GS-CA1 300mg/kg group, Week 21, individual animals, 300 mg/kg): 200 gag RNA copies per ml
- Plasma SHIV viral load (SHIV-SF162P3; GS-CA1 300mg/kg group, Week 22, individual animals, 300 mg/kg): 200 gag RNA copies per ml
- Plasma SHIV viral load (SHIV-SF162P3; GS-CA1 300mg/kg group, Week 23, individual animals, 300 mg/kg): 200 gag RNA copies per ml
- Plasma SHIV viral load (SHIV-SF162P3; GS-CA1 300mg/kg group, Week 24, individual animals, 300 mg/kg): 200 gag RNA copies per ml
- peak viral loads vs vehicle-treated control animals (SHIV-SF162P3; infected GS-CA1-treated animals): significantly lower
- First viremia to seroconversion interval ([1]; 150 mg/kg): 1 weeks and 4 weeks and 5 weeks
- Seroconversion timepoint ([1]; 150 mg/kg): 17 study week and 20 study week and 18 study week and 16 study week and 19 study week and 21 study week
- First viremia to seroconversion interval ([1]; 300 mg/kg): 1 weeks and 3 weeks
- Seroconversion timepoint ([1]; 300 mg/kg): 18 study week and 20 study week
- median time to seroconversion from the onset of viraemia ([1]; all infected GS-CA1-treated animals, range 1 to 5 weeks): 4 weeks
- Predicted Hepatic Clearance, rate, primary human hepatocytes [2]: 0.33 mL/min/kg
